{"source": "patent US6005099A", "about": "“Glucosamine disaccharides, method for their preparation, pharmaceutical composition comprising same, and their use” (priority 1993, dated 1999)", "key": {"[1]": {"system": "macrophages of C57BL/6 mice", "assay": "Prostaglandin E2 (PGE2) production in supernatants of macrophages, RIA", "type": "cell-based", "procedure": "(§1) Bone marrow was collected from hip, femur and tibia of six week old male C57BL/6 mice.\n(§2) After 7 days the mature macrophages were collected and resuspended in Dulbecco modified medium comprising 5% foetal calf serum to a concentration of 7×10^6 cells per ml. This cell suspension was mixed 1:1, (v/v) with samples diluted in the same medium and used in the biological tests performed in microplates with 70,000 cells/well (incubation at 37° C. for 22 hours, 100% humidity and 8% CO2)."}, "[2]": {"system": "macrophages of C57BL/6 mice", "assay": "Nitric oxide (NO) production in supernatants of macrophages", "type": "cell-based", "procedure": "as §1, §2\nNitric oxide (NO) is produced by macrophages in response to bacterial infection and in particular LPS. NO seems to have cytostatic and cytotoxic properties. NO is extremely reactive and rapidly converted by oxidation into nitrite and nitrate.\nThe nitrite formation was determined using the Griess test (addition of 1:1, (v/v) N-(1-naphthyl)ethylene diamine hydrochloride [1 g/l in water] and p-aminobenzenesulphonamide [10 g/l in 5% H3 PO4 ]). The nitrite concentration in supernatants of activated macrophages was calculated in comparison to NaNO2 standards."}, "[3]": {"system": "macrophages of C57BL/6 mice", "assay": "Production of interleukin-6 (IL-6) in supernatants of macrophages, ELISA", "type": "cell-based", "procedure": "as §1, §2\nIL-6 concentration in supernatants of macrophages was determined by an ELISA test (Kit ENDOGEN, EM-IL-6)."}, "[4]": {"system": "macrophages of C57BL/6 mice", "assay": "Production of TNF-α in supernatants of macrophages, ELISA", "type": "cell-based", "text": "(§3) Bone marrow was collected from hip, femur and tibia of six week old male C57BL/6 mice. After homogenization of the marrow suspension in Dulbecco modified medium and centrifugation, the pellet was resuspended in Dulbecco modified medium and the cells were cultivated at a concentration of 4×10^5 cells per ml in the same medium supplemented with 30% supernatant of L-929 fibroblasts (a common source for colony stimulating factor 1 [CSF-1]) and 20% horse serum.\nas §2\nThe concentration of TNF-α in supernatants of macrophages was determined by an ELISA test (Kit GENZYME, Factor-test mTNF-α)."}, "[5]": {"system": "Limulus amoebocyte lysate (LAL)", "assay": "Endotoxicity in the limulus amoebocyte lysate (LAL) test (gelification and chromogenic)", "type": "biochemical, Limulus polyphemus", "procedure": "(§4) The endotoxicity and the biological activity of disaccharide A (example 1) and of disaccharide B (example 2) were determined and compared to that of lipopolysaccharide originating from Escherichia coli O111:B4 (Sigma, Product No. L3024), lipid A (Sigma, Product No. L5399; used as a starting material in example 4), and 3-O-deacylated lipid A originating from lipid A of Escherichia coli F583 (prepared as in the comparative example), but without purification by HPLC.\n(§5) The endotoxicity was determined in the Limulus amoebocyte lysate (LAL) test. This test is based on the observation that endotoxins induce coagulation of the hemolymph of Limulus polyphemus.\n(§6) In the gelification test serial dilutions of the compound to be tested were mixed with LAL 1:1, (v/v) (Haemachem Inc., sensitivity LAL 0.06 endotoxin units/ml), and the mixture was incubated for one hour at 37° C. Then gel formation was monitored by measuring the optical density at 405 nm. The last dilution which formed a gel was determined by inverting the reaction microplate. The endotoxin activity in the samples was determined by comparison with dilutions of a lipopolysaccharide standard (1 endotoxin unit=0.1 ng LPS).\nThe endotoxicity was also measured in the chromogenic test, in which the activation of a protease in LAL by LPS was measured using a chromogen (Ac-Ile-Glu-Ala-Arg-pNA; Bio Whittaker Kit No. 50-650U). […]"}, "NMRI mice": {"system": "NMRI mice", "assay": "Acute toxicity in NMRI mice", "type": "in vivo", "conditions": "caudal vein, up to 100 mg/kg", "procedure": "Disaccharide A was injected into the caudal vein of male and female NMRI mice (age 6-7 weeks)."}, "[6]": {"system": "Limulus amoebocyte lysate (LAL)", "assay": "Endotoxicity, LAL gelification test", "type": "biochemical, Limulus polyphemus", "conditions": "ng LPS per ng product, n = 2-12", "procedure": "as §4, §5, §6\n(§7) The results are expressed in table 3 as: ng LPS per ng product."}, "protease in LAL [7]": {"system": "protease in LAL", "assay": "Endotoxicity, chromogenic LAL test with 0.1 mg/ml bovine serum albumin", "type": "biochemical, Limulus polyphemus", "conditions": "n=4 or 6", "procedure": "(§8) The endotoxicity was also measured in the chromogenic test, in which the activation of a protease in LAL by LPS was measured using a chromogen (Ac-Ile-Glu-Ala-Arg-pNA; Bio Whittaker Kit No. 50-650U). The colour formation (liberation of pNA (p-nitroaniline)) was measured at 405 nm.\n(§9) Samples were pre-incubated at 37° C. during 10 minutes and subsequently chromogen-comprising LAL was added. The time required for reaching an optical density of 0.2 at 405 nm was measured. The endotoxin activity was calculated in comparison to a reference curve obtained for LPS standards.\nThe endotoxicity of the disaccharides E, F and G was determined using the chromogenic LAL test (see infra). However, instead of using 1 mg/ml bovine serum albumin, 0.1 mg/ml has been used. The results (n=4 or 6) were obtained in two series of experiments and are shown hereafter."}, "[8]": {"system": "macrophages of C57BL/6 mice", "assay": "Production of interleukin-1α (IL-1α) in supernatants of macrophages, ELISA", "type": "cell-based", "text": "as §3, §2\nThe concentration of IL-1α in the supernatants of macrophages was measured by an ELISA-test (Kit GENZYME, Intertest-1α)."}, "protease in LAL [9]": {"system": "protease in LAL", "assay": "Endotoxicity, chromogenic LAL test", "type": "biochemical, Limulus polyphemus", "conditions": "ng LPS per ng product, n = 1-10", "procedure": "as §4, §5, §8, §9, §7"}, "[10]": {"conditions": "for lipid A and 3-O-deacylated lipid A activity relatively constant within the tested range, no maximum"}, "[11]": {"conditions": "highest concentration tested 500 μg/ml"}}, "note": "“Also recorded” adds a separate entry of the source."}
{"smiles": "CCCCCCCCCCCC(=O)O[C@H](CCCCCCCCCCC)CC(=O)N[C@H]1[C@H](OC[C@H]2O[C@H](OP(=O)(O)O)[C@H](NC(=O)C[C@H](O)CCCCCCCCCCC)[C@@H](O)[C@@H]2O)O[C@H](CO)[C@@H](OP(=O)(O)O)[C@@H]1O", "note": "[disaccharide A, 2-Deoxy-6-O-[2-deoxy-2-[(R)-3-dodecanoyloxytetradecanoylamino]-4-O-phosphono-β-D-glucopyranosyl]-2-[(R)-3-hydroxytetradecanoylamino]-α-D-glucopyranosyl dihydrogenphosphate]", "values": [{"measurement": "PGE2 at highest concentration inducing an activity", "setting": "[1]; 500 μg/ml, detection limit of the order of 80 pg/ml", "result": "540 ± 65", "unit": "pg/mL"}, {"measurement": "PGE2 at lowest concentration inducing an activity", "setting": "[1]; LPS 6.25, 3-O-deacylated lipid A 500, disaccharide A 16 μg/ml, detection limit of the order of 80 pg/ml", "result": "80 ± 41", "unit": "pg/mL"}, {"measurement": "minimal effective concentration", "setting": "[1]; Mus musculus, Macrophage, 22 h, detection limit of the order of 80 pg/ml, read-out: PGE2: Lowest concentration inducing an activity", "result": 16, "unit": "µg/mL"}, {"measurement": "PGE2: Highest concentration inducing an activity", "setting": "[1]; highest concentration used", "result": 500, "unit": "µg/mL"}, {"measurement": "PGE2 production, in words", "setting": "[1]; macrophages of C57BL/6 mice", "result": "significantly lower than for LPS; also recorded: more active than lipid A and 3-O-deacylated lipid A"}, {"measurement": "EC50", "setting": "[2]; Mus musculus, Macrophage, product concentration corresponding to 50% activity, 22 hours, 37° C.", "result": 0.16, "unit": "µg/mL"}, {"measurement": "minimal effective concentration", "setting": "[2]; Mus musculus, Macrophage, product concentration corresponding to induced NO activity, 22 hours, 37° C., read-out: NO production: Minimum activity (product concentration)", "result": 0.016, "unit": "µg/mL"}, {"measurement": "NO activity at 50% in nmol of NO2- /ml", "setting": "[2]; extrapolated from the series dilution curve", "result": "5 nmol of NO2- /ml"}, {"measurement": "NO production, in words", "setting": "[2]; macrophages of C57BL/6 mice", "result": "induce NO production of the same order; also recorded: as strongly as lipid A and 3-O-deacylated lipid A"}, {"measurement": "NO production: Maximum activity (product concentration)", "setting": "[2]; product concentration corresponding to induced NO activity, 22 hours, 37° C.", "result": 50, "unit": "µg/mL"}, {"measurement": "IL-6 at 50% activity", "setting": "[3]; 50% activity", "result": 2850, "unit": "pg/mL"}, {"measurement": "minimal effective concentration", "setting": "[3]; Mus musculus, Macrophage, 22 h, read-out: IL-6: Minimum activity, concentration", "result": 0.016, "unit": "µg/mL"}, {"measurement": "EC50", "setting": "[3]; Mus musculus, Macrophage, read-out: IL-6: 50% activity, concentration", "result": 1, "unit": "µg/mL"}, {"measurement": "IL-6 at minimum activity", "setting": "[3]; at the concentration of minimum activity", "result": "850 ± 350", "unit": "pg/mL"}, {"measurement": "IL-6: Maximum activity, concentration", "setting": "[3]; [10]", "result": 50, "unit": "µg/mL"}, {"measurement": "IL-6 at maximum activity", "setting": "[3]; [10]", "result": "5700 ± 2650", "unit": "pg/mL"}, {"measurement": "IL-6 production, in words", "setting": "[3]; macrophages of C57BL/6 mice", "result": "significantly lower than for LPS; also recorded: more strongly than lipid A and 3-O-deacylated lipid A"}, {"measurement": "TNF-α at concentration 500 μg/ml", "setting": "[4]; 500 μg/ml", "result": "530 ± 139", "unit": "pg/mL"}, {"measurement": "minimal effective concentration", "setting": "[4]; Mus musculus, Macrophage, 22 h, detection limit in the order of 100 pg/ml, read-out: TNF-α: Minimum activity detected, concentration", "result": 0.16, "unit": "µg/mL"}, {"measurement": "TNF α at minimum activity detected", "setting": "[4]; at the concentration of minimum activity, LPS 0.006, lipid A 0.016, 3-O-deacylated lipid A 0.016, disaccharide A 0.16 μg/ml", "result": "159 ± 43", "unit": "pg/mL"}, {"measurement": "TNF-α at highest concentration tested", "setting": "[4]; [11]", "result": "530 ± 139", "unit": "pg/mL"}, {"measurement": "TNF-α production, in words", "setting": "[4]; macrophages of C57BL/6 mice", "result": "equally or more strongly than lipid A or 3-O-deacylated lipid A"}, {"measurement": "Endotoxicity in LAL, in words", "setting": "[5]", "result": "lowest endotoxicity"}, {"measurement": "Acute toxicity, deaths", "setting": "NMRI mice", "result": "did not induce any death"}, {"measurement": "Endotoxic activity in LAL, gelification", "setting": "[6]", "result": "0.003 ± 0.002", "unit": "ng/ng"}, {"measurement": "Endotoxic activity in LAL", "setting": "protease in LAL [7]", "result": "0.000003 ± 0.000002", "unit": "mg/mg"}, {"measurement": "IL-1α at concentration 500 μg/ml", "setting": "[8]; 500 μg/ml", "result": "75 ± 45", "unit": "pg/mL"}, {"measurement": "minimal effective concentration", "setting": "[8]; Mus musculus, Macrophage, 22 h, detection limit in the order of 15 pg/ml, read-out: IL-1α: Minimum activity detected, concentration", "result": 16, "unit": "µg/mL"}, {"measurement": "IL-1α at minimum activity detected", "setting": "[8]; at the concentration of minimum activity, LPS 1.56, lipid A 50, 3-O-deacylated lipid A 160, disaccharide A 16 μg/ml", "result": "19 ± 11", "unit": "pg/mL"}, {"measurement": "IL-1α at highest concentration tested", "setting": "[8]; [11]", "result": "75 ± 45", "unit": "pg/mL"}, {"measurement": "IL-1α production, in words", "setting": "[8]; macrophages of C57BL/6 mice, comparison partly at 500 μg/ml", "result": "not significantly different; also recorded: at least as strong as by lipid A and 3-O-deacylated lipid A"}, {"measurement": "Endotoxic activity in LAL, chromogen", "setting": "protease in LAL [9]", "result": "0.0014 ± 0.0013", "unit": "ng/ng"}]}
